Reference: US11650214B2, “Proteins of the WNT signaling pathway and uses thereof in the diagnostic and treatment of hypopigmentation disorders” (INSERM (INSTITUT NATIONAL DE LA SANTÉ ET DE LA RECHERCHE …, priority 2014, dated 2023)

Legend:
Format in all cases: cell-based, human
[1] = system: WNT pathway in lesional skin from vitiligo patients; experiment: Ex vivo culture of lesional vitiligo skin biopsies with WNT pathway activators, RT-qPCR; conditions: 14 days, SKL2001 40 μM; for mRNA level of early melanoblast marker Brn2 / mRNA level of early melanoblast marker PAX3 / relative mRNA expression of LEF / relative mRNA expression of WNT family: CHIR99021 3 μM, LiCl 20 μM; for relative mRNA expression of LEF / relative mRNA expression of WNT family: stimulation every other day, n=9
Procedure: Vitiligo patients (n=9) were biopsied in lesional skin area. The biopsies were stimulated in ex vivo culture during 14 days with GSK3β inhibitor: CHIR99021 (3 μM) or LiCl (20 μM) or with WNT agonist: SKL2001 (40 μM) every other day. mRNA was extracted and a RT-qPCR was performed to quantify the relative expression of LEF (A) and the pre-melanocytes markers PAX3 (B), Brn2 (C) MITF (D) and DCT (E).
Vitiligo patients (n=9) were biopsied in lesional skin area. The biopsies were stimulated in ex vivo culture during 14 days with GSK3β inhibitor: CHIR99021 (3 μM) or LiCl (20 μM) or with WNT agonist: SKL2001 (40 μM) every other day. mRNA was extracted and a RT-qPCR was performed to quantify the relative expression of WNT family
For vitiligo skin biopsies, after verification of the absence of melanocytes with Wood's lamp, two or three 6 mm biopsies composed of dermis plus epidermis were taken into lesional skin from vitiligo patients (n=9). The biopsies are rapidly put on transwell chamber of 0.4 μm (Becton Dickinson) and kept on semi liquid culture conditions in “Skin long term culture medium” (Biopredic). The skin was maintained at 37° C. in a wet 5% CO2 atmosphere.
The culture medium supplemented with Forskolin (Sigma Aldrich), LiCl (Sigma Aldrich), CHIR99021 (Calbiochem) or SKL2001 (Calbiochem) was changed […] during 14 days.
mRNA from melanocytes and keratinocytes was extracted with RNeasy kit (Qiagen). The biopsies are cut and disrupted with tissue ruptor (Qiagen) and the mRNA was extracted with RNeasy kit (Qiagen). cDNA were synthesized from 300 ng to 1 μg of mRNA with the Reverse Transcription System (Promega). Relative quantification of gene expression was measured by real time qPCR with Sybr green reagent (Life technology) on Step one system.
In order to induce the differentiation of melanocyte stem cells, they pharmacologically activated the WNT pathway in vitiligo skin cultured ex vivo as shown previously. They used two methods to activate the WNT pathway: a WNT agonist (SKL2001) and two GSK3β inhibitors: lithium chloride (LiCl) and a commercial specific inhibitor (CHIR99021). They biopsied 9 vitiligo subjects (6 mm punch) on diverse body locations ([…], 2 on trunk, 2 on leg, 1 on arm and 1 on axilla) and treated the ex vivo culture model during 14 days with a systemic stimulation every other day with the WNT activators.
They evaluated the activation of WNT pathway by the mRNA level of WNTs (TCF/LEF1 and the melanogenesis pathway by the mRNA level of MITF, DCT, PAX3 and BRn2) within the skin. Treatments with LiCl, CHIR99021 and SKL2001 induce an increase of all WNT and LEF after 14 days of stimulation (FIG. 6A and FIG. 11).

NHM (melanocytes) = experiment: Oxidative stress (H2O2) in NHM, qPCR of LEF1 and WNT family; conditions: 24 hours
Procedure: (§1) NHM (A) and NHK (B) and whole skin in ex vivo culture (C) were stimulated 24 hours with 25 to 100 μM of H2O2. After mRNA extraction, a reverse transcription was performed and the relative gene expression of LEF1 was analyzed with qPCR.
(§2) (A) NHM, (B) NHK and (C) whole skin in ex vivo culture were stimulated 24 hours with 25 to 100 μM of H2O2. After mRNA extraction, a reverse transcription was performed and the relative gene expression of WNT family was analyzed with qPCR.
(§3) NHMs and NHKs are obtained from the foreskin of phototype IV children as described previously. Briefly, epidermal cells are obtained by overnight digestion of the skin in a dispase solution (Roche) at 4° C. followed by the digestion of the epidermis in a trypsin/EDTA solution during 20 minutes at 37° C. […]
(§4) mRNA from melanocytes and keratinocytes was extracted with RNeasy kit (Qiagen). […] Relative quantification of gene expression was measured by real time qPCR with Sybr green reagent (Life technology) on Step one system.
(§5) Since the WNT pathway, implicated in melanocytes differentiation, seems to be affected in vitiligo skin, inventors tried to determine the element—known to be involved in vitiligo—responsible for this dysregulation. […] They induced an oxidative stress with H2O2 in melanocytes and keratinocytes and analyzed the expression of LEF and WNT family. […]

NHK (keratinocytes) = experiment: Oxidative stress (H2O2) in NHK, qPCR of LEF1 and WNT family; conditions: 24 hours
Procedure: as §1, §2, §3, §4, §5

[2] = system: whole skin in ex vivo culture; experiment: Oxidative stress (H2O2) in whole skin in ex vivo culture, qPCR of LEF1 and WNT family; conditions: whole skin biopsies ex vivo, 24 hours, 25 to 100 μM H2O2
Procedure: as §1, §2
Skin from abdominoplasty surgery was used to the development of the ex vivo skin culture model. The subcutaneous fat was removed and biopsies of 6 mm were done in the skin composed of dermis and epidermis.
as §4, §5

[3] = 25 to 100 μM H2O2, majority of WNT

SMILES | mRNA level of early melanoblast marker Brn2 [1] | mRNA level of early melanoblast marker PAX3 [1] | relative mRNA expression of LEF [1] | relative mRNA expression of WNT family [1] | mRNA level of MITF [1] | expression of LEF (NHM (melanocytes); 25 to 100 μM H2O2) | expression of WNT family (NHM (melanocytes); [3]) | expression of LEF (NHK (keratinocytes); 25 to 100 μM H2O2) | expression of WNT family (NHK (keratinocytes); [3]) | expression of LEF [2] | expression of WNT family ([2]; most of the WNT family)
Cc1c[nH]c(-c2cnc(NCCNc3ccc(C#N)cn3)nc2-c2ccc(Cl)cc2Cl)n1 [CHIR99021] | up-regulated | up-regulated | increase | increase | – | – | – | – | – | – | –
O=C(NCCCn1ccnc1)c1cc(-c2ccco2)on1 [SKL2001] | up-regulated | up-regulated | increase | increase | increased | – | – | – | – | – | –
OO [H2O2] | – | – | – | – | – | decreased | decreased | decreased | decreased | decrease expression | decrease expression
